Data published in US20240270751A1, “Pyrazolopyridinone Compounds” (BeiGene Ltd., priority 2021, published 2024).

How the values were obtained:
DGKα = DGKα (Homo sapiens (Human), UniProt P23743); test: Biochemical DGK IC50 assay, DGKα ADP-Glo assay; details: 7.5 nM enzyme, 140 μM ATP, 80 μM DAG
How it was run: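 Compounds at final 1.55˜10000 nM or 23.3˜150000 nM were tested against full-length DGKα. Substrate was lipid micelles of DAG and PS resuspended in 25 mM HEPES pH 7.0 with 0.5 mM EDTA and 160 mM octyl β-D-glucopyranoside. ADP formed was detected by ADP-Glo.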

DGKζ = DGKζ (Homo sapiens (Human), UniProt Q13574); test: Biochemical DGK IC50 assay, DGKζ ADP-Glo assay; details: 0.5 nM enzyme, 140 μM ATP, 80 μM DAG; read-out: DGKζ ADP-Glo assay IC50
How it was run: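 ADP formation measured by ADP-Glo luminescence, with test compounds at final 1.55–10000 nM or 23.3–150000 nM. Enzyme: purified full-length human DGKζ from Sf9 insect cells; substrate: DAG/PS micelles in 25 mM HEPES pH 7.0, 0.5 mM EDTA, octyl glucoside.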

Chain of DGKζ (Q13574 other isoform, or with tags, fused parts or gaps): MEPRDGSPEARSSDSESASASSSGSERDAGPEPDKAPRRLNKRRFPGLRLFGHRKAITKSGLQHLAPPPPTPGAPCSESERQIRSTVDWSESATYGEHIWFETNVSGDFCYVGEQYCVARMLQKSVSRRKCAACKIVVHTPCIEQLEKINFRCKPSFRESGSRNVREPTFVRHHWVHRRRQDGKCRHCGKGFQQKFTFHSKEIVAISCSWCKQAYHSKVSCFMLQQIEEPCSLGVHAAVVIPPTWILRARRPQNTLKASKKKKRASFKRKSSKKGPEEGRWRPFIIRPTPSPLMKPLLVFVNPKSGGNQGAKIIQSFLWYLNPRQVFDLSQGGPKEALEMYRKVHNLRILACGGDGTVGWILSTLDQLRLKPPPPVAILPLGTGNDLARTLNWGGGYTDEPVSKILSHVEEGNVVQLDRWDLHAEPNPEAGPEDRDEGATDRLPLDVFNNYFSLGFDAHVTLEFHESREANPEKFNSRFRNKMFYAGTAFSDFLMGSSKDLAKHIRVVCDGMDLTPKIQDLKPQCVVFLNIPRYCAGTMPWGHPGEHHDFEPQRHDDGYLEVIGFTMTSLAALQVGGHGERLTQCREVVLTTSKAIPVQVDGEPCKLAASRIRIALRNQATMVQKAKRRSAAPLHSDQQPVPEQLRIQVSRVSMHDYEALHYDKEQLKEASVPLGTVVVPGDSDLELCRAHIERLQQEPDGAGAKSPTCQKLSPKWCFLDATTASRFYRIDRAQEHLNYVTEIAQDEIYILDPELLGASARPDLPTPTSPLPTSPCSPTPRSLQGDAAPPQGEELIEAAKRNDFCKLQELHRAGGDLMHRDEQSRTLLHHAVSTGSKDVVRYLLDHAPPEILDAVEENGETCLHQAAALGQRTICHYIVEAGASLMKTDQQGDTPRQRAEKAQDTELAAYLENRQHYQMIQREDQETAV
Chain of DGKα (P23743 whole entry): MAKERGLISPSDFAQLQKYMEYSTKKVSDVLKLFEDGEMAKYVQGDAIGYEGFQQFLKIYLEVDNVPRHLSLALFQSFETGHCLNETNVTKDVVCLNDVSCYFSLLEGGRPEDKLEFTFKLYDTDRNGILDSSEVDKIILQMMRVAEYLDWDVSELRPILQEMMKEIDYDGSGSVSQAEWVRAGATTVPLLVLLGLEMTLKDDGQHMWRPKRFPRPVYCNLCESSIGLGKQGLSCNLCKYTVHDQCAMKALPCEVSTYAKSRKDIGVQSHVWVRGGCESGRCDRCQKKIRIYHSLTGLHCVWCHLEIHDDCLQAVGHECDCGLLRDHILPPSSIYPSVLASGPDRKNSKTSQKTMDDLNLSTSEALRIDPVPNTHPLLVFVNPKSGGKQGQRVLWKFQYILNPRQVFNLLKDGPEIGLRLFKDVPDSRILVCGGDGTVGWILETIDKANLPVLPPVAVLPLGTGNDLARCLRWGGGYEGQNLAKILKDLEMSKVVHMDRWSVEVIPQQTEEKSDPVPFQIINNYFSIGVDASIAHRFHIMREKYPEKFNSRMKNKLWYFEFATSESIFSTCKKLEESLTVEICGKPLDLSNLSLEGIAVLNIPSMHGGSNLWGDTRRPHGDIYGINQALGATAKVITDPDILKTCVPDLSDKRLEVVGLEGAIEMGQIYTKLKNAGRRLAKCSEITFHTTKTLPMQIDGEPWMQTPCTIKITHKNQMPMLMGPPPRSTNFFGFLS

SMILES	IC50 (DGKα)	IC50 (DGKζ)
CC[C@H]1CN(C(C)c2ccc(F)cc2C#N)[C@H](CC)CN1c1cc(=O)n(C)c2cn(CC#N)nc12 (single isomer, unassigned) [Compound A224b]	4.15 µM	4.94 µM
C[C@@H]1CN(c2cc(=O)n(C)c3cn(CC#N)nc23)[C@@H](C)CN1[C@@H](C)c1ccc2nccnc2c1 [Compound A2a, 2-(7-((2S,5R)-2,5-dimethyl-4-((S)-1-(quinoxalin-6-yl)ethyl)piperazin-1-yl)-4-methyl-5-oxo-4,5-dihydro-2H-pyrazolo[4,3-b]pyridin-2-yl)acetonitrile]	4.8 µM	0.052 µM
[2H]C([2H])([2H])n1c(=O)cc(N2C[C@@H](CC)N(C(C)c3ccc(F)cc3C(F)(F)F)C[C@@H]2CC)c2nn(CC#N)cc21 (stereo partly drawn) [Compound A276, 2-(7-((2S,5R)-2,5-diethyl-4-(1-(4-fluoro-2-(trifluoromethyl)phenyl)ethyl)piperazin-1-yl)-4-(methyl-d3)-5-oxo-4,5-dihydro-2H-pyrazolo[4,3-b]pyridin-2-yl)acetonitrile]	> 150 µM	0.131 µM
CC[C@@H]1CN(c2cc(=O)n(C)c3cn(CC#N)nc23)[C@@H](C)CN1C(C)c1ccc2nccnc2c1 (single isomer, unassigned) [Compound A97a]	3.38 µM	0.0086 µM
CC[C@@H]1CN(c2cc(=O)n(C)c3cn(CC#N)nc23)[C@@H](CC)CN1C(=O)c1ccc2cccnc2c1 [Compound A373]	21.8 µM	3.22 µM
CC(c1cnc2c(c1)OCCO2)N1C[C@H](C)N(c2cc(=O)n(C)c3cn(CC#N)nc23)C[C@H]1C (stereo partly drawn) [Compound A250]	> 10 µM	3.01 µM
CC(c1ccc2nccnc2c1)N1C[C@H](C(F)F)N(c2cc(=O)n(C)c3cn(CC#N)nc23)C[C@H]1C (stereo partly drawn) [Compound A261, 2-(7-((2R,5R)-2-(difluoromethyl)-5-methyl-4-(1-(quinoxalin-6-yl)ethyl)piperazin-1-yl)-4-methyl-5-oxo-4,5-dihydro-2H-pyrazolo[4,3-b]pyridin-2-yl)acetonitrile]	> 10 µM	2.35 µM
CC[C@@H]1CN(c2cc(=O)n(C)c3cn(CC#N)nc23)[C@@H](CC)CN1C(=O)c1cc2ccccc2cn1 [Compound A372]	0.127 µM	3.45 µM
CC[C@H]1CN(C2CCc3ccccc32)[C@H](CC)CN1c1cc(=O)n(C)c2cn(CC#N)nc12 (single isomer, unassigned) [Compound A149a]	4.12 µM	4.16 µM
CC[C@H]1CN(C(C)c2ccc(C)cn2)[C@H](CC)CN1c1cc(=O)n(C)c2cn(CC#N)nc12 (stereo partly drawn) [Compound A346]	0.029 µM	0.556 µM
CC[C@H]1CN(C(C)c2ccccc2COC)[C@H](CC)CN1c1cc(=O)n(C)c2cn(CC#N)nc12 (stereo partly drawn) [Compound A107]	> 10 µM	0.272 µM
CC[C@H]1CN(C(C)c2ccc(C(F)(F)F)cc2)[C@H](CC)CN1c1cc(=O)n(C)c2cn(CC#N)nc12 (mixture of isomers) [Compound A103, 2-(7-((2S,5R)-2,5-diethyl-4-(1-(4-(trifluoromethyl)phenyl)ethyl)piperazin-1-yl)-4-methyl-5-oxo-4,5-dihydro-2H-pyrazolo[4,3-b]pyridin-2-yl)acetonitrile]	0.208 µM	0.107 µM
CC(c1ccc2ncc(O)nc2c1)N1C[C@H](C)N(c2cc(=O)n(C)c3cn(CC#N)nc23)C[C@H]1C (stereo partly drawn) [Compound A279, 2-(7-((2S,5R)-4-(1-(3-hydroxyquinoxalin-6-yl)ethyl)-2,5-dimethylpiperazin-1-yl)-4-methyl-5-oxo-4,5-dihydro-2H-pyrazolo[4,3-b]pyridin-2-yl)acetonitrile]	> 10 µM	> 10 µM
[2H]C([2H])([2H])c1cnc2ccc(C(C)N3C[C@H](C)N(c4cc(=O)n(C)c5cn(CC#N)nc45)C[C@H]3C)cc2n1 (single isomer, unassigned) [Compound A313b]	61.6 µM	0.051 µM
COc1cc(F)c(C(C)N2C[C@H](C)N(c3cc(=O)n(C)c4cn(CC#N)nc34)C[C@H]2C)cc1F (stereo partly drawn) [Compound A35]	0.87 µM	1.2 µM
CC[C@H]1CN(C(C)c2cnn(CC)c2C(F)(F)F)[C@H](CC)CN1c1cc(=O)n(C)c2cn(CC#N)nc12 (single isomer, unassigned) [Compound A119b]	4.56 µM	0.964 µM
CC[C@H]1CN(C(C)c2ncccn2)[C@H](CC)CN1c1cc(=O)n(C)c2cn(CC#N)nc12 (stereo partly drawn) [Compound A130]	0.015 µM	9.08 µM
CC(c1ccc2nccnc2c1)N1C[C@H](C)N(c2cc(=O)n(C)c3cn(C)nc23)C[C@H]1C (stereo partly drawn) [Compound A3]	3.2 µM	3.8 µM
CC(c1ccc2c(c1)OCCO2)N1C[C@H](C)N(c2cc(=O)n(C)c3cn(CC#N)nc23)C[C@H]1C (single isomer, unassigned) [Compound A43b]	6.57 µM	0.05 µM
CC(c1ccc(F)cc1CC#N)N1C[C@H](C)N(c2cc(=O)n(C)c3cn(CC#N)nc23)C[C@H]1C (single isomer, unassigned) [Compound A287b]	> 10 µM	0.567 µM

SMILES	IC50 (DGKα)	IC50 (DGKζ)
CC[C@H]1CN(C(C)c2ccc(C)cc2C(F)(F)F)[C@H](CC)CN1c1cc(=O)n(C)c2cn(CC#N)nc12 (single isomer, unassigned) [Compound A115b]	105 µM	0.378 µM
Cc1nc2c(C(C)N3C[C@H](C)N(c4cc(=O)n(C)c5cn(CC#N)nc45)C[C@H]3C)cccc2o1 (stereo partly drawn) [Compound A45]	> 10 µM	1.42 µM
CCc1cc(F)ccc1C(C)N1C[C@H](CC)N(c2cc(=O)n(C)c3cn(CC#N)nc23)C[C@H]1CC (stereo partly drawn) [Compound A205, 2-(7-((2S,5R)-2,5-diethyl-4-(1-(2-ethyl-4-fluorophenyl)ethyl)piperazin-1-yl)-4-methyl-5-oxo-4,5-dihydro-2H-pyrazolo[4,3-b]pyridin-2-yl)acetonitrile]	63.7 µM	0.151 µM
CC[C@@H]1CN(c2cc(=O)n(C)c3cn(CC)nc23)[C@@H](C)CN1C(C)c1ccc2nccnc2c1 (single isomer, unassigned) [Compound A221b]	2.37 µM	> 10 µM
CC[C@H]1CN(C(C)c2c(C)cnn2CC)[C@H](CC)CN1c1cc(=O)n(C)c2cn(CC#N)nc12 (single isomer, unassigned) [Compound A227b]	> 10 µM	0.691 µM
CC[C@H]1CN(C(C)c2ccc(CN3C[C@@H](C)O[C@@H](C)C3)cc2)[C@H](CC)CN1c1cc(=O)n(C)c2cn(CC#N)nc12 (stereo partly drawn) [Compound A343, 2-(7-((2S,5R)-4-(1-(4-(((2S,6R)-2,6-dimethylmorpholino)methyl)phenyl)ethyl)-2,5-diethylpiperazin-1-yl)-4-methyl-5-oxo-4,5-dihydro-2H-pyrazolo[4,3-b]pyridin-2-yl)acetonitrile]	0.246 µM	0.675 µM
CC[C@H]1CN(C(C)c2nc3ccc(C(F)(F)F)cc3n2CC)[C@H](CC)CN1c1cc(=O)n(C)c2cn(CC#N)nc12 (single isomer, unassigned) [Compound A204b]	> 10 µM	0.298 µM
CC[C@H]1CN(C(C)c2ccccc2OC)[C@H](CC)CN1c1cc(=O)n(C)c2cn(CC#N)nc12 (single isomer, unassigned) [Compound A106b]	> 10 µM	0.183 µM
CC#CCn1cc2c(n1)c(N1C[C@@H](C)N([C@H](C)c3ccc4nccnc4c3)C[C@@H]1C)cc(=O)n2C [Compound A22a, 2-(but-2-yn-1-yl)-7-((2S,5R)-2,5-dimethyl-4-((R)-1-(quinoxalin-6-yl)ethyl)piperazin-1-yl)-4-methyl-2,4-dihydro-5H-pyrazolo[4,3-b]pyridin-5-one]	1.1 µM	13 µM
[2H]C([2H])([2H])n1c(=O)cc(N2C[C@@H](CC)N(C(C)c3ccc4nccnc4c3)C[C@@H]2CC)c2nn(CC#N)cc21 (stereo partly drawn) [Compound A51]	0.347 µM	0.0078 µM
CC[C@H]1CN(C(C)c2ccc(C(N)=O)cc2)[C@H](CC)CN1c1cc(=O)n(C)c2cn(CC#N)nc12 (single isomer, unassigned) [Compound A120b]	2.26 µM	> 10 µM
CC[C@H]1CN(C(C)c2ccc3nc(O)cnc3c2)[C@H](CC)CN1c1cc(=O)n(C)c2cn(CC#N)nc12 (single isomer, unassigned) [Compound A282a]	0.182 µM	5.35 µM
CC[C@@H]1CN(c2cc(=O)n(C)c3cn(CC#N)nc23)[C@@H](CC)CN1C(=O)c1cnc2ccccc2n1 [Compound A374]	0.618 µM	0.051 µM
CC[C@H]1CN(C(C)c2ncc(C(F)(F)F)cc2F)[C@H](CC)CN1c1cc(=O)n(C)c2cn(CC#N)nc12 (single isomer, unassigned) [Compound A354a]	0.996 µM	3.13 µM
CC[C@H]1CN(C(C)c2ccc(F)cc2OC(C)C)[C@H](CC)CN1c1cc(=O)n(C)c2cn(CC#N)nc12 (stereo partly drawn) [Compound A142]	6.58 µM	1.22 µM
CC[C@H]1CN(C(C)c2cc3cnccc3cn2)[C@H](CC)CN1c1cc(=O)n(C)c2cn(CC#N)nc12 (single isomer, unassigned) [Compound A368b]	0.091 µM	0.382 µM
CC[C@@H]1CN(c2c(Cl)c(=O)n(C)c3cn(CC#N)nc23)CCN1C(C)c1ccc2nccnc2c1 (single isomer, unassigned) [Compound A162b]	> 10 µM	1.05 µM
COC(=O)Cn1cc2c(n1)c(N1C[C@@H](C)N(C(C)c3ccc4nccnc4c3)C[C@@H]1C)cc(=O)n2C (stereo partly drawn) [Compound A7]	> 10 µM	1.03 µM
CC[C@H]1CN(C(C)c2ccc(C(C)(C)C#N)cn2)[C@H](CC)CN1c1cc(=O)n(C)c2cn(CC#N)nc12 (stereo partly drawn) [Compound A386]	0.689 µM	0.418 µM
